According to PMC3351140 (MedChemComm, 2011):
Where a chain is given by its changes, count along the chain named. Values joined by “and” are separate entries in the source; they are usually repeats but may differ in a detail not shown here. Equal values may be shown once. One block for each compound: values may come before it.

Legend:
[1] = molecular target: T1, N370S glucocerebrosidase (GCase) (Homo sapiens, UniProt P04062, N409S); assay: N370S spleen; assay type: biochemical; conditions: for IC50: N370S tissue homogenate, 4-methylumbelliferone β-D glucopyranoside substrate (blue substrate); for fold loss of activity vs 8a: compared with 8a
T1 sequence (P04062 40-536 N409S): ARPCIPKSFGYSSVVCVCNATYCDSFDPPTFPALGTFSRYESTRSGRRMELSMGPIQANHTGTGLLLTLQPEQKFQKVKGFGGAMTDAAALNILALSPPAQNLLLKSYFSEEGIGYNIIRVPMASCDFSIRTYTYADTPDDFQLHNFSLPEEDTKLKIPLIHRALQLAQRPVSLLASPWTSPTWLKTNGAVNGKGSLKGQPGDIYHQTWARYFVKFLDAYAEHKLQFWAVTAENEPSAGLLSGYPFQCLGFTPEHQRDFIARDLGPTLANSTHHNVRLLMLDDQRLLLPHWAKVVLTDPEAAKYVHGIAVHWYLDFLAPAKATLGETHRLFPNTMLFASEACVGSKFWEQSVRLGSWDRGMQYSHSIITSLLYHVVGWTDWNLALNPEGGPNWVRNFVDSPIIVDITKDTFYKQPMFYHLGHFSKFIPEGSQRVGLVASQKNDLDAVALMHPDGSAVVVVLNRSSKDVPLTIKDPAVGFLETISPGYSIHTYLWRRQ

[2] = test system: fibroblasts from patients with genotype N370S/N370S; assay: Translocation of N370S GCase to lysosomes, confocal microscopy; assay type: cell-based, human; conditions: 1 μM compound, five days, vs vehicle
human SST4 receptor = human SST4 receptor (Homo sapiens, UniProt P31391); assay: human SST4 receptor binding affinity assay; conditions: compared with 27
Chain of human SST4 receptor (P31391 whole entry): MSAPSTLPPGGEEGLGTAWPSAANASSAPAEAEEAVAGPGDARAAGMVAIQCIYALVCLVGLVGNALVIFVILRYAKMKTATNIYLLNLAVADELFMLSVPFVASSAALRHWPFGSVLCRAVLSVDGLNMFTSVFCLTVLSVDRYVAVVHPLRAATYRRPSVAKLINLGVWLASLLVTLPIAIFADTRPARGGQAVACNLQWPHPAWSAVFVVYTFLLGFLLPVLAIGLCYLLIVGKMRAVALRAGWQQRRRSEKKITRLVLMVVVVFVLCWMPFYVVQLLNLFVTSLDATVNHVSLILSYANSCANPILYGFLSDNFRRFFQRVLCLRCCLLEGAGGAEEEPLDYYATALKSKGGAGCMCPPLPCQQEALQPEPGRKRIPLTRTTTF

GCase [3] = molecular target: T2, GCase (Homo sapiens, UniProt P04062); assay: Isolated enzyme GCase assay; assay type: biochemical
T2 sequence (P04062 40-536): T1 sequence (P04062 40-536 N409S) with S370N

GCase [4] = molecular target: T2, GCase; assay: GCase inhibition with alternative substrates; assay type: biochemical
GCase [5] = molecular target: T2, GCase; assay: Thermofunctional stabilization of GCase; assay type: biochemical; conditions: enzyme incubated at 51 °C for 60 minutes
[6] = Pharmacokinetics after intraperitoneal administration to mice; assay type: in vivo, male C57BL/6 mice
[7] = Mouse liver microsome stability; assay type: in vitro ADME; conditions: 60 minutes, in the presence of NADPH

inhibitory activity in isolated enzyme assays (GCase [3]): displayed inhibitory activity
inhibition of hydrolysis of resorufin-β-glucopyranoside (red substrate) (GCase [4]): effectively inhibited
retention of GCase function after heating (GCase [5]): retain considerable function
co-localization of N370S GCase with LAMP-1 (lysosomes) [2]: Increased co-localization
Plasma concentration, Mean ([6]; 30 mg/kg IP, 0 hr): BQL
Plasma concentration, individual ([6]; 30 mg/kg IP, 0 hr): BQL
Plasma concentration, individual ([6]; 30 mg/kg IP, 0.083 hr, listed as ML156 (8i)): 1820 ng/mL and 1410 ng/mL
Plasma concentration, individual ([6]; 30 mg/kg IP, 0.25 hr, listed as ML156 (8i)): 3010 ng/mL and 1640 ng/mL
Plasma concentration, individual ([6]; 30 mg/kg IP, 0.5 hr, listed as ML156 (8i)): 2270 ng/mL and 3270 ng/mL
Plasma concentration, individual ([6]; 30 mg/kg IP, 1 hr, listed as ML156 (8i)): 3770 ng/mL and 3150 ng/mL
Plasma concentration, individual ([6]; 30 mg/kg IP, 2 hr, listed as ML156 (8i)): 3840 ng/mL
Plasma concentration, individual ([6]; 30 mg/kg IP, 4 hr, listed as ML156 (8i)): 2030 ng/mL and 2570 ng/mL
Plasma concentration, individual ([6]; 30 mg/kg IP, 8 hr, listed as ML156 (8i)): 1190 ng/mL and 357 ng/mL and 714 ng/mL
Plasma concentration, individual ([6]; 30 mg/kg IP, 12 hr, listed as ML156 (8i)): 127 ng/mL and 80.7 ng/mL
Plasma concentration, individual ([6]; 30 mg/kg IP, 24 hr, listed as ML156 (8i)): 12.6 ng/mL and 9.98 ng/mL
parent molecule remaining [7]: 58%
SMILES: S=C(NCCCc1c[nH]cn1)NCCCN(Cc1ccc(Cl)c(Cl)c1)c1ccc(Br)cn1 [8i]
brain exposure ([6]; brain, additional pharmacokinetic studies): reasonable levels of the compound also reached the brain

IC50 [1]: inactive
SMILES: CC(=O)NCCCNC(=S)NCCCN(Cc1ccc(Cl)cc1)c1ccc(Br)cn1 [13b]

The next lines start with the compound.

SMILES: S=C(NCCCc1cnc[nH]1)NCCCN(Cc1ccc(Cl)cc1)c1ccc(Br)cc1 [compound 24]
fold more potent than compound 27 (GCase) ([1]; compared with 27): about 10 fold
co-localization of N370S GCase with LAMP-1 (lysosomes) [2]: Increased co-localization
fold less potent than 27 (SST4 binding) (human SST4 receptor): about 5 fold

SMILES: CCCCNC(=S)NCCCN(Cc1ccc(Cl)c(Cl)c1)c1ccc(Br)cn1 [compound 25]
IC50 [1]: inactive

SMILES: CN(CCCc1cnc[nH]1)C(=S)NCCCN(Cc1ccc(Cl)cc1)c1ccc(Br)cn1 [compound 27]
fold loss of activity vs 8a [1]: 10 fold

SMILES: OC[C@H]1CNC[C@@H](O)[C@@H]1O [Isofagomine, reference compound]
retention of GCase function after heating (GCase [5]): retain considerable function

SMILES: CN(CCCN(Cc1ccc(Cl)cc1)c1ccc(Br)cn1)C(=S)NCCCc1cnc[nH]1 [compound 26]
fold loss of activity vs 8a [1]: 2 fold
